According to the supplement of paper PMC12463676, “Small-molecule dissolution of stress granules by redox modulation benefits ALS models” (Nature Chemical Biology, 2025):

How the values were obtained:
lipoamide = compound: NC(=O)CCCCC1CCSS1 [lipoamide]; experiment: thermal stability z-score vs DMSO; higher = more thermally stabilized by treatment; details: HeLa, lipoamide concentration 100 µM
Description: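 Cellular thermal proteome profiling in HeLa cells. Cells were treated with 100 µM lipoamide for 1 h, with or without 1 mM arsenate for a further 1 h, then heated to ten temperatures (37-66.3 °C), and soluble protein was quantified by TMT mass spectrometry relative to 0.1% DMSO controls. The thermal stability score (sum of log2 fold changes minus the abundance score) was transformed to a z-score; mean of n = 3 experiments.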

potassium arsenate = compound: O=[As]([O-])(O)O.[K+] [potassium arsenate]; experiment: as above; details: HeLa; arsenate concentration 1 mM
Description: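 Cellular thermal proteome profiling in HeLa cells treated with 1 mM arsenate for 1 h (DMSO pretreatment), heated to ten temperatures (37-66.3 °C). Soluble protein was quantified by TMT mass spectrometry relative to DMSO controls; the thermal stability score was transformed to a z-score; mean of n = 3 experiments.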

[1] = arsenate co-treatment: 1 mM arsenate 1 h
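Note: each temperature applied for 3 min, abundance score taken as mean log2 fold change at the two lowest temperatures, z-score obtained by mean subtraction and division by SD.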

Sequence of UniProt Q3YEC7 (Q3YEC7 whole entry): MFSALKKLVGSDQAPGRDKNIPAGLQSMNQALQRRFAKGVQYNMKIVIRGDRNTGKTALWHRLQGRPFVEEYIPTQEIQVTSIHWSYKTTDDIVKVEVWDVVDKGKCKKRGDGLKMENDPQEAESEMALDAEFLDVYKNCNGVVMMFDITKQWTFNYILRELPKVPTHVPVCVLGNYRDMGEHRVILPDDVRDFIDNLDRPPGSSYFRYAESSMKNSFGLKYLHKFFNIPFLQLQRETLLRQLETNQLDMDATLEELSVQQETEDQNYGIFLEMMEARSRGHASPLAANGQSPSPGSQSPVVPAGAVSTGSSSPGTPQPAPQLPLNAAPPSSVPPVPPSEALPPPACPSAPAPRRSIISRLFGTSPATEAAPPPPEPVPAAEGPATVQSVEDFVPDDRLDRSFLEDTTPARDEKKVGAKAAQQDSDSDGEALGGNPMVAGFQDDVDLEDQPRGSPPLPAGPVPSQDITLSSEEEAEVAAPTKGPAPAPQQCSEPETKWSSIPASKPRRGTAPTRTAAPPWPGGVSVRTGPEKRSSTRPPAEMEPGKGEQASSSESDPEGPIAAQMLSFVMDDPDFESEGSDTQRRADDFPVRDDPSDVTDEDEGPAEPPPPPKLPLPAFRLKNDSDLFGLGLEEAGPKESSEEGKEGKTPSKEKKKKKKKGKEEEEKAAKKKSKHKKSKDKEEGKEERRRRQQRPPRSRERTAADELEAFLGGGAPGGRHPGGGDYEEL
Sequence of UniProt O00154 (O00154 whole entry): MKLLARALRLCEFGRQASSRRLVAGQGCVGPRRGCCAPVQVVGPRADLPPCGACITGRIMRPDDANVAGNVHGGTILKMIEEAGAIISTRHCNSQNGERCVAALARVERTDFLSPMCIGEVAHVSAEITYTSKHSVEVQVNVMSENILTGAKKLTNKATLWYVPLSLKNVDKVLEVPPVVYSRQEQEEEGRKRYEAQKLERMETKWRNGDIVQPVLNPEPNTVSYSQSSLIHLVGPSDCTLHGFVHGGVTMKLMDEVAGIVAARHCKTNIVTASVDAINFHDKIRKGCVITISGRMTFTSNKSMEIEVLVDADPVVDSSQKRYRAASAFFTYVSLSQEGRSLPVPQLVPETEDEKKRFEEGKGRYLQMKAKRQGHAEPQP
Sequence of UniProt Q8IX03 (Q8IX03 whole entry): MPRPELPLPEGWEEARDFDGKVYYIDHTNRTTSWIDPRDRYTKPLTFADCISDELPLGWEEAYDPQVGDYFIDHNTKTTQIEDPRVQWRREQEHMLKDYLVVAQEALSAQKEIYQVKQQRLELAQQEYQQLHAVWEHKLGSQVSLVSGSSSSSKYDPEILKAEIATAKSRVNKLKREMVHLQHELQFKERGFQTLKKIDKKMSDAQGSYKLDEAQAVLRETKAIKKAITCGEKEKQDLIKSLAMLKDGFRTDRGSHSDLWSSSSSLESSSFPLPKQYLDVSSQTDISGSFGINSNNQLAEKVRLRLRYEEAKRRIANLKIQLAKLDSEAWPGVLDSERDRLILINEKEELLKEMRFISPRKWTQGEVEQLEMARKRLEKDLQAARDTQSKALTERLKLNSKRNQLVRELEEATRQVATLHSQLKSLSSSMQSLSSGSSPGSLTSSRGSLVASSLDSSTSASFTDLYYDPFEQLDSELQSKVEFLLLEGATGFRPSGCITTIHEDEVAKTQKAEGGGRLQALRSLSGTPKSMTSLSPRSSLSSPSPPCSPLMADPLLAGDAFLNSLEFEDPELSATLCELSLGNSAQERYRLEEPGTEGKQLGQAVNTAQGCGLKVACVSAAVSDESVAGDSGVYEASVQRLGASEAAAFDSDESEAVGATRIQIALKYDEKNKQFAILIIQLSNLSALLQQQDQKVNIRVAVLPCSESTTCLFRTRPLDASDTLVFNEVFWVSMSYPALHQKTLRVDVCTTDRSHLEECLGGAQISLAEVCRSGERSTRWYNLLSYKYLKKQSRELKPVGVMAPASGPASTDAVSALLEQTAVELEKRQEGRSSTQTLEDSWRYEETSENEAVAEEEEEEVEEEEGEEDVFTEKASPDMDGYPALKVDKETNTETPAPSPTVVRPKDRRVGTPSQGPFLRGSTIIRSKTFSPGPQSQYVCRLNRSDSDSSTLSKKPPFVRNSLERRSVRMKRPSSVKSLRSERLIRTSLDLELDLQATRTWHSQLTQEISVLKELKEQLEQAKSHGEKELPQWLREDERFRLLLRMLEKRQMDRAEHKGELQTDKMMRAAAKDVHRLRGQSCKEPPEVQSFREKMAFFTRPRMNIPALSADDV
Sequence of UniProt O95833 (O95833 whole entry, looked up): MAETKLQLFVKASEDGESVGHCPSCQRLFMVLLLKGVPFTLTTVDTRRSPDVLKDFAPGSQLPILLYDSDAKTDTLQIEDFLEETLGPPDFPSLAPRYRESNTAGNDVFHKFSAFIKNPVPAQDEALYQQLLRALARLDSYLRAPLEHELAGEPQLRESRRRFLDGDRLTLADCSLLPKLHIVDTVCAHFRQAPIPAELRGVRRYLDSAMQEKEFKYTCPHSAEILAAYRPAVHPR
Sequence of UniProt O43813 (O43813 whole entry): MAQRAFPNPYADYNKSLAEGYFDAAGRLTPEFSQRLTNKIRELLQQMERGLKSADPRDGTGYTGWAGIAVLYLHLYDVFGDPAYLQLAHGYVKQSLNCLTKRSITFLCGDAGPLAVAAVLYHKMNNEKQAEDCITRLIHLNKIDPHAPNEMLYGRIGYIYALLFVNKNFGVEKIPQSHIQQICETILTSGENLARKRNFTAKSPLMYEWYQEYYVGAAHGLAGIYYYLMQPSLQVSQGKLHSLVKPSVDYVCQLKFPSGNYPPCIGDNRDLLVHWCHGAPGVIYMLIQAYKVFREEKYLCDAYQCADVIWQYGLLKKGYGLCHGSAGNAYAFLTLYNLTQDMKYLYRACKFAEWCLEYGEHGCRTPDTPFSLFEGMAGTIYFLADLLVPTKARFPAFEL
Sequence of UniProt Q9BS26 (Q9BS26 whole entry): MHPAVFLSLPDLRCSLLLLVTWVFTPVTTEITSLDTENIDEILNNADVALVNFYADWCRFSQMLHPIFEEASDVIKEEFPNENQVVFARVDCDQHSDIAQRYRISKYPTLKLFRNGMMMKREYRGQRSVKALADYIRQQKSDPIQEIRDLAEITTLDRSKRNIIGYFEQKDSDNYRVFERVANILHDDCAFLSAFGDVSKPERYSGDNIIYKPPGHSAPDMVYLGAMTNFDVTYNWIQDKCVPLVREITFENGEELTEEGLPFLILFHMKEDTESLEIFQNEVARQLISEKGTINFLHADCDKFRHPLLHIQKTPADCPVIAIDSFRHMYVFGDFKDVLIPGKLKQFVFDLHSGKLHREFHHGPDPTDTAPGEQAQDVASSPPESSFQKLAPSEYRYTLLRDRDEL
Sequence of UniProt Q92520 (Q92520 whole entry): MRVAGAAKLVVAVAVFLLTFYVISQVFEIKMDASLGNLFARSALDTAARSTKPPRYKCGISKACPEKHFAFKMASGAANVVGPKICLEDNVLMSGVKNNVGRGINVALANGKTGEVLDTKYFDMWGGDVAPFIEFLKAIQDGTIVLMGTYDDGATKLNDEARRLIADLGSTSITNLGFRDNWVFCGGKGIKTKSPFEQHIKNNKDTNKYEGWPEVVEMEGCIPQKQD
Sequence of UniProt P53384 (P53384 whole entry): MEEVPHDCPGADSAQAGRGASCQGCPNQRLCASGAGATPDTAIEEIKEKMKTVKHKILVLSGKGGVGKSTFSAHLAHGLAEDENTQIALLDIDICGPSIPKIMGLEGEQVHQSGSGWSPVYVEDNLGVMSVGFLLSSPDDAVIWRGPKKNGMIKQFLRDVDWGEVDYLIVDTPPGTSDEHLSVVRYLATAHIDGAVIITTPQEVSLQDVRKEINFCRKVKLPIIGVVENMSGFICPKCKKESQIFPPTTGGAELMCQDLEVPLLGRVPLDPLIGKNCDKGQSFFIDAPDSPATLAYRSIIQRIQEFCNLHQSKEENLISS
Sequence of UniProt O95299 (O95299 whole entry): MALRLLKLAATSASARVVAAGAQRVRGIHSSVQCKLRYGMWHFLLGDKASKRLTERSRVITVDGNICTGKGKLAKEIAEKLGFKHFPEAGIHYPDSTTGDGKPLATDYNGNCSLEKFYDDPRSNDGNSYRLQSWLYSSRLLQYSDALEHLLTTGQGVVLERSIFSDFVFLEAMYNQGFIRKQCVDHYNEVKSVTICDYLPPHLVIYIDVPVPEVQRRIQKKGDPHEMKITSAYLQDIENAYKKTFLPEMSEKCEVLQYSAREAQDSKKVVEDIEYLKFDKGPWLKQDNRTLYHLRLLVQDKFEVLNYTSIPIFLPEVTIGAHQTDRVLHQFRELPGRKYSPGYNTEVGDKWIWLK
Sequence of UniProt Q9BUI4 (Q9BUI4 whole entry): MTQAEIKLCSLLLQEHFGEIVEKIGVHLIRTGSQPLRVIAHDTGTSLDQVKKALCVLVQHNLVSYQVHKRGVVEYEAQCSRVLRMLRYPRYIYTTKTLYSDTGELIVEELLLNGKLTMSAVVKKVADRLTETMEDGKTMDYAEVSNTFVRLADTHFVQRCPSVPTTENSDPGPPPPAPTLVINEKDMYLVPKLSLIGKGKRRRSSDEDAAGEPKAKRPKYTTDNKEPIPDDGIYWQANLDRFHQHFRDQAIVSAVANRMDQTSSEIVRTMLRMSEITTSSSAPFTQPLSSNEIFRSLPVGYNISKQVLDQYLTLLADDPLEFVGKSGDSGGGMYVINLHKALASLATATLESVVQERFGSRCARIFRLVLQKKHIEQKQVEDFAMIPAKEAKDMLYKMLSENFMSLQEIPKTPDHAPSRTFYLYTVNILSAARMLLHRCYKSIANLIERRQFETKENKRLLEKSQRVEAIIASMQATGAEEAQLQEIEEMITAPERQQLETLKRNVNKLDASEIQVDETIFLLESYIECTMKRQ
Sequence of UniProt Q04760 (Q04760 whole entry, looked up): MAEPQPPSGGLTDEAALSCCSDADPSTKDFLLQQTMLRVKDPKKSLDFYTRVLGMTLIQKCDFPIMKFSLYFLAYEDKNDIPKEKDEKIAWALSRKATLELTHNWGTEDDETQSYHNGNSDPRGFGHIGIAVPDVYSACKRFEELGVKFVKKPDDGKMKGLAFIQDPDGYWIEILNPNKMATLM

Target | thermal stability z-score (lipoamide; [1]) | thermal stability z-score (lipoamide; arsenate co-treatment: none) | thermal stability z-score (potassium arsenate)
FAU (UniProt P62861) | 1.7 | 1.21 | 1.15
NUBP1 (UniProt P53384) | -0.23 | 0.385 | -0.302
FANCB (UniProt Q8NB91) | -0.147 | -0.547 | -1.04
CLIC3 (UniProt O95833) | 0.00456 | 0.0631 | -0.0618
AUH (UniProt Q13825) | -0.0558 | 0.0366 | 0.0655
ATP6AP2 (UniProt O75787) | -2.63 | -2.3 | -0.366
ZFAND3 (UniProt Q9H8U3) | 0.918 | 0.518 | -1.25
ATP5D (UniProt P30049) | 1.09 | 0.762 | 0.463
DRG2 (UniProt P55039) | -0.439 | -0.192 | -0.395
LANCL1 (UniProt O43813) | 0.232 | 0.164 | 0.0783
TMEM30A (UniProt Q9NV96) | -0.45 | -0.161 | -0.845
FAM122B (UniProt Q7Z309) | -0.0455 | -0.144 | -0.217
UBE4A (UniProt Q14139) | -0.217 | -0.148 | 0.86
P4HB (UniProt P07237) | -0.224 | 0.393 | 0.47
SSFA2 (UniProt P28290) | -0.0444 | -0.00989 | -0.392
LTBR (UniProt P36941) | -2.06 | -1.66 | 0.85
PLK1 (UniProt P53350) | -0.0395 | -0.233 | -0.584
RNF114 (UniProt Q9Y508) | -0.534 | -0.407 | -1.6
PHLPP1 (UniProt O60346) | 0.138 | -0.144 | -0.061
FAM172A (UniProt Q8WUF8) | 0.954 | 0.472 | 0.275
NDUFA10 (UniProt O95299) | -0.327 | -0.199 | -0.167
TIA1 (UniProt P31483) | -0.376 | 0.000117 | -1.08
SAMHD1 (UniProt Q9Y3Z3) | -0.0165 | 0.3 | 0.738
PCCA (UniProt P05165) | 0.202 | 0.198 | -0.314

Target | thermal stability z-score (lipoamide; [1]) | thermal stability z-score (lipoamide; arsenate co-treatment: none) | thermal stability z-score (potassium arsenate)
TPCN1 (UniProt Q9ULQ1) | 0.0393 | -0.00808 | -0.538
MAT2B (UniProt Q9NZL9) | -0.368 | -0.144 | -0.705
FKBP2 (UniProt P26885) | -3.2 | -3.35 | 0.177
ACOT7 (UniProt O00154) | 0.237 | 0.304 | -0.151
EIF2D (UniProt P41214) | -1.12 | -0.337 | -1.22
EXOC8 (UniProt Q8IYI6) | -0.0845 | 0.0172 | -0.106
ETFB (UniProt P38117) | -0.321 | 0.54 | -1.2
NAGK (UniProt Q9UJ70) | 0.0756 | -0.796 | -0.921
RER1 (UniProt O15258) | 0.802 | 0.615 | 0.934
BABAM1 (UniProt Q9NWV8) | 0.196 | 0.129 | -0.323
ARL6IP4 (UniProt Q66PJ3) | 0.727 | -0.0769 | 0.572
TOPBP1 (UniProt Q92547) | 0.0371 | 0.0228 | -0.623
CCT2 (UniProt P78371) | 0.119 | -0.107 | -0.0294
DCUN1D5 (UniProt Q9BTE7) | -0.0389 | 0.215 | -0.507
PIEZO1 (UniProt Q92508) | -0.342 | 0.0689 | 0.19
ERP44 (UniProt Q9BS26) | -2.86 | -2.35 | 0.885
ASCC2 (UniProt Q9H1I8) | -0.0905 | 0.388 | 1.51
CD109 (UniProt Q6YHK3) | -0.877 | -1.01 | 1.06
PMM1 (UniProt Q92871) | -0.14 | 0.072 | 0.274
RELB (UniProt Q01201) | -0.128 | -0.07 | 0.048
GLO1 (UniProt Q04760) | 1.12 | 0.739 | 1.62
ATG16L1 (UniProt Q676U5) | 0.346 | 0.282 | -0.533
EPS8L2 (UniProt Q9H6S3) | 0.124 | 0.0219 | 1.1
GORAB (UniProt Q5T7V8) | 0.521 | 0.173 | 0.527

Target | thermal stability z-score (lipoamide; [1]) | thermal stability z-score (lipoamide; arsenate co-treatment: none) | thermal stability z-score (potassium arsenate)
SRP72 (UniProt O76094) | -0.316 | -0.00987 | 0.424
FBXL20 (UniProt Q96IG2) | -1.2 | -1.06 | -0.992
SMARCAD1 (UniProt Q9H4L7) | -1.27 | -0.234 | -0.159
KCNK1 (UniProt O00180) | -1.31 | 0.686 | -1.18
TOMM40 (UniProt O96008) | 0.59 | 0.961 | 1.15
LZIC (UniProt Q8WZA0) | 0.558 | 0.781 | 0.906
FTO (UniProt Q9C0B1) | -0.0697 | -0.447 | 1.38
SNX33 (UniProt Q8WV41) | -0.136 | 0.0586 | -0.148
KIAA1033 (UniProt Q2M389) | -0.344 | -0.193 | -0.0284
PPP1R11 (UniProt O60927) | 0.0148 | -0.832 | -0.187
MCM3 (UniProt P25205) | -0.878 | 0.412 | 2.44
SLC6A6 (UniProt P31641) | -0.428 | -0.488 | -0.649
FAIM (UniProt Q9NVQ4) | 1.03 | 0.411 | 0.336
MRPL41 (UniProt Q8IXM3) | -0.202 | 0.303 | 0.448
PGRMC2 (UniProt O15173) | 0.682 | 0.466 | 0.479
POLR3C (UniProt Q9BUI4) | 0.213 | 0.0462 | -0.411
WWC1 (UniProt Q8IX03) | -0.0147 | -0.0692 | -0.0726
FAM3C (UniProt Q92520) | -1.06 | -0.89 | 0.805
RABL6 (UniProt Q3YEC7) | -0.678 | -0.754 | -0.246
CHERP (UniProt Q8IWX8) | 0.00336 | 0.0908 | -0.107
GNS (UniProt P15586) | -0.0525 | -0.0481 | -0.512
DDX21 (UniProt Q9NR30) | 0.693 | 0.249 | -1.35
GFPT1 (UniProt Q06210) | -0.127 | -0.196 | -0.331
